We go through two compounds from ChEMBL document CHEMBL1201862, “PubChem BioAssay data set” (2004).

Common to all, as to test: inhibition of tumour cell growth, NCI panel, 48 h
Assay [1] has as its system TK-10.
Assay [2] relates to HOP-18.
Assay [3] has as its system A549.
In assay [4] the test system is M14.
Assay [5] relates to HCT-15.
For assay [6], the system named is U-251.
Assay [7] deals with PC-3.
Assay [8] concerns EKVX.
Assay [9] has as its system HT-29.
Assay [10] concerns MDA-MB-231.
Assay [11] has as its system OVCAR-8.
Assay [12] has as its system UACC-62.
In assay [13] the test system is SF-268.
In assay [14] the test system is DMS-114.
Assay [15] deals with HCT-116.
For assay [16], the system named is SF-539.
In assay [17] the test system is MDA-N.
Assay [18] has as its system MCF7.
In assay [19] the test system is KM12.
In assay [20] the test system is SK-MEL-2.

Each structure is given as a SMILES string.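 Five concentrations, 48 hours, 96-well plates. Abbreviation: GI50, concentration required for 50% inhibition of growth.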 Activity calls are given as the source filed them. Rule as the data show it: active = GI50 up to about 1.1 µM and inactive = higher.

Consider `COc1cc(/C=C/C(=O)Oc2ccccc2)ccc1C(=O)O/C=C/c1ccccc1`, for which the GI50 in [1] was > 100 µM (inactive); in assay [2], > 100 µM (inactive); in assay [3] it was > 100 µM (inactive); in assay [4], > 100 µM (inactive); in [5] it was over 100 µM; in [6] it was > 100 µM (inactive). Besides, the GI50 in [7], in [8], in assay [9], in assay [10], in [11] and in assay [12] was > 100 µM (inactive) throughout. Further, the GI50 in [13], in assay [14], in assay [15], in assay [16], in [17] and in assay [18] was > 100 µM (inactive) throughout. For the same compound, the GI50 in assay [19] and in [20] was > 100 µM (inactive) throughout.

Regarding `N=c1nc(N)c2cc3c(N)nc(=N)c3cc12`, the GI50 in assay [1] is 15.3 µM (inactive); in [2], 8.97 µM (inactive); in assay [3], > 100 µM (inactive); in assay [4], 2.47 µM (inactive); in assay [5] it was 71.6 µM; in [6] it was 11.5 µM (inactive). In addition, the GI50 was 36.1 µM (inactive) in [7]; 25.2 µM (inactive) in [8]; 82.2 µM (inactive) in assay [9]; 2.69 µM (inactive) in [10]; 4.35 µM (inactive) in [11]; 3.72 µM (inactive) in assay [12]. The GI50 is 2.62 µM (inactive) in [13]; 5.74 µM (inactive) in [14]; 4.55 µM (inactive) in assay [15]; 4.85 µM (inactive) in assay [16]; 2.05 µM (inactive) in [17]; 33.5 µM (inactive) in [18]. For the same compound, the figures for the GI50 in [19] and in [20] were 72.9 µM (inactive) and 3.31 µM (inactive), respectively.
